Measured values taken from US9695154B2, “Heteroaryl inhibitors of sumo activating enzyme” (MILLENNIUM PHARMACEUTICALS, INC., priority 2013, dated 2017).

Biological target: T1, recombinant human SAE enzyme (Homo sapiens, UniProt Q9UBT2)
T1 sequence (Q9UBT2 1-640): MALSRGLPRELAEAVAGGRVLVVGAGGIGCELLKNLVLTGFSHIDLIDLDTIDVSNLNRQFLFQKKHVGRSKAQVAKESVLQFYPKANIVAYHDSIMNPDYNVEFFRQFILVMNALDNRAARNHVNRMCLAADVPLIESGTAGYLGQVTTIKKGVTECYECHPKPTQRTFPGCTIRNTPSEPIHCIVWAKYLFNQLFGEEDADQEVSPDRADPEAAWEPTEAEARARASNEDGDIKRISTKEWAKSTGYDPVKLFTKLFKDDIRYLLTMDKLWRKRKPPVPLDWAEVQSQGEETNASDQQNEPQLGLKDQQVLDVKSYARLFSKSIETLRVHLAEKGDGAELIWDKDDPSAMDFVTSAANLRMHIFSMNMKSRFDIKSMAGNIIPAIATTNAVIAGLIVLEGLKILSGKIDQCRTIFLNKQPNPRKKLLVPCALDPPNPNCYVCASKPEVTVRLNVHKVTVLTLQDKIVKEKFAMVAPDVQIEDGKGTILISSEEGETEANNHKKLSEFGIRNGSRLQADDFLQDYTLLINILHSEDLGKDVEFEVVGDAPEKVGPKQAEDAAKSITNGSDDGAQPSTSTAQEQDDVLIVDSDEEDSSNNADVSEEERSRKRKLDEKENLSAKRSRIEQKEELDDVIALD
T1 sequence (Q9UBE0 1-346 partner): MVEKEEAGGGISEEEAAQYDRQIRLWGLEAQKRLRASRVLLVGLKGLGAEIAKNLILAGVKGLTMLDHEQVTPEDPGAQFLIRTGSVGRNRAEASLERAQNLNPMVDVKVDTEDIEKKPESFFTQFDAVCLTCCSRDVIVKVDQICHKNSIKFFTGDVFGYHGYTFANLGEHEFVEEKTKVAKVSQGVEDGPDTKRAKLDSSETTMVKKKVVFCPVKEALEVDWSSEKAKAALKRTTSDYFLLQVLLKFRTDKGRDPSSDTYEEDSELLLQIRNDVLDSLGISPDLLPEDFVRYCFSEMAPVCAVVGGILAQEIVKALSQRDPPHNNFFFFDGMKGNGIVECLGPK
Experiment: SAE HTRF Enzyme Assay
Type: biochemical
Conditions: for IC50: class symbols A-C; for Percent Inhibition / inhibition at 0.111 µM: compound concentration 0.111 μM; for Percent Inhibition: 0.111 µM; for inhibition at 0.111 µM: read-out: Percent Inhibition
Protocol: The SAE enzymatic reaction totals 50 μl and contains 50 mM HEPES Hemisodium (pH 7.5), 0.05% BSA, 5 mM MgCl2, 0.5 μM ATP, 250 μM GSH, 0.01 μM Ubc9-GST, 0.125 μM Sumo-Flag and 0.11 nM recombinant human SAE enzyme. The enzymatic reaction mixture with and without inhibitor, Is incubated at 24° C. for 105 min in a 384-well plate before termination with […] of Stop/Detection buffer (0.1M HEPES Hemisodium pH 7.5, 0.05% Tween20, 20 mM EDTA, 410 mM KF, 0.53 nM Europium-Cryptate labeled monoclonal anti-Flag M2 Antibody (CisBio International) and 8.125 μg/ml PHYCOLINK goat anti-GST allophycocyanin (XL-APC) antibody (Prozyme)). After incubation for 2 hours at 24° C., quantification of FRET is performed on the Pherostar™ (BMG Labtech). Percentage inhibition values at a single concentration or enzyme inhibition (IC50) values are determined from those curves. One skilled in the art will appreciate that the values generated either as percentage inhibition at a single concentration or IC50 values are subject to experimental variation.

| SMILES | IC50 | Percent Inhibition | inhibition at 0.111 µM |
| --- | --- | --- | --- |
| CC#CC(C)n1ccc(C(=O)c2cncnc2N[C@@H]2C[C@H](COS(N)(=O)=O)[C@@H](O)C2)n1 (single isomer, unassigned) [Compound I-86, {(1R,2S,4R)-2-hydroxy-4-[(5-{[1-(2S)-(pent-3-yn-2-yl)-1H-pyrazol-3-yl]carbonyl}pyrimidin-4-yl)amino]cyclopentyl}methyl sulfamate or {(1R,2S,4R)-2-hydroxy-4-[(5-{[1-(2R)-(pent-3-yn-2-yl)-1H-pyrazol-3-yl]carbonyl}pyrimidin-4-yl)amino]cyclopentyl}methyl sulfamate] | 100 to 1000 nM | 35% | – |
| CC(c1cccc(Cl)c1)n1ccc(C(=O)c2cncnc2N[C@@H]2C[C@H](COS(N)(=O)=O)[C@@H](O)C2)n1 (single isomer, unassigned) [Compound I-133, [(1R,2S,4R)-4-{[5-({1-[(1S)-1-(3-chlorophenyl)ethyl]-1H-pyrazol-3-yl}carbonyl)pyrimidin-4-yl]amino}-2-hydroxycyclopentyl]methyl sulfamate or [(1R,2S,4R)-4-{[5-({1-[(1R)-1-(3-chlorophenyl)ethyl]-1H-pyrazol-3-yl}carbonyl)pyrimidin-4-yl]amino}-2-hydroxycyclopentyl]methyl sulfamate] | 10 to 100 nM | 61% | – |
| Cc1cc(C(=O)c2cncnc2N[C@@H]2C[C@H](COS(N)(=O)=O)[C@@H](O)C2)nn1C(C)c1cccc(Cl)c1 (single isomer, unassigned) [Compound I-172, [(1R,2S,4R)-4-{[5-({1-[(1R)-1-(3-chlorophenyl)ethyl]-5-methyl-1H-pyrazol-3-yl}carbonyl)pyrimidin-4-yl]amino}-2-hydroxycyclopentyl]methyl sulfamate or [(1R,2S,4R)-4-{[5-({1-[(1S)-1-(3-chlorophenyl)ethyl]-5-methyl-1H-pyrazol-3-yl}carbonyl)pyrimidin-4-yl]amino}-2-hydroxycyclopentyl]methyl sulfamate] | 10 to 100 nM | – | 83% |
| CCC(c1cccc(Br)c1)n1ccc(C(=O)c2cncnc2N[C@@H]2C[C@H](COS(N)(=O)=O)[C@@H](O)[C@@H]2F)c1 (single isomer, unassigned) [Compound I-175, [(1R,2R,3R,4R)-4-{[5-({1-[(1S)-1-(3-bromophenyl)propyl]-1H-pyrrol-3-yl}carbonyl)pyrimidin-4-yl]amino}-3-fluoro-2-hydroxycyclopentyl]methyl sulfamate or [(1R,2R,3R,4R)-4-{[5-({1-[(1R)-1-(3-bromophenyl)propyl]-1H-pyrrol-3-yl}carbonyl)pyrimidin-4-yl]amino}-3-fluoro-2-hydroxycyclopentyl]methyl sulfamate] | < 10 nM | – | 99% |
| CC(c1cccc(Br)c1)n1ccc(C(=O)c2cncnc2N[C@@H]2C[C@H](COS(N)(=O)=O)[C@@H](O)[C@@H]2F)c1 (single isomer, unassigned) [Compound I-192, [(1R,2R,3R,4R)-4-{[5-({1-[(1S)-1-(3-bromophenyl)ethyl]-1H-pyrrol-3-yl}carbonyl)pyrimidin-4-yl]amino}-3-fluoro-2-hydroxycyclopentyl]methyl sulfamate or [(1R,2R,3R,4R)-4-{[5-({1-[(1R)-1-(3-bromophenyl)ethyl]-1H-pyrrol-3-yl}carbonyl)pyrimidin-4-yl]amino}-3-fluoro-2-hydroxycyclopentyl]methyl sulfamate] | < 10 nM | – | 98% |
| CC(c1ccc(C(F)(F)F)o1)n1ccc(C(=O)c2cncnc2N[C@@H]2C[C@H](COS(N)(=O)=O)[C@@H](O)[C@@H]2F)c1 (single isomer, unassigned) [Compound I-304, [(1R,2R,3R,4R)-3-fluoro-2-hydroxy-4-({5-[(1-{(1S)-1-[5-(trifluoromethyl)-2-furyl]ethyl}-1H-pyrrol-3-yl)carbonyl]pyrimidin-4-yl}amino)cyclopentyl]methyl sulfamate or [(1R,2R,3R,4R)-3-fluoro-2-hydroxy-4-({5-[(1-{(1R)-1-[5-(trifluoromethyl)-2-furyl]ethyl}-1H-pyrrol-3-yl)carbonyl]pyrimidin-4-yl}amino)cyclopentyl]methyl sulfamate] | 10 to 100 nM | – | 91% |
| CC(c1cccc(Br)c1)n1ccc(C(=O)c2cncnc2N[C@@H]2C[C@H](COS(N)(=O)=O)[C@@H](O)C2)n1 (single isomer, unassigned) [Compound I-315, [(1R,2S,4R)-4-{[5-({1-[(1S)-1-(3-bromophenyl)ethyl]-1H-pyrazol-3-yl}carbonyl)pyrimidin-4-yl]amino}-2-hydroxycyclopentyl]methyl sulfamate or [(1R,2S,4R)-4-{[5-({1-[(1R)-1-(3-bromophenyl)ethyl]-1H-pyrazol-3-yl}carbonyl)pyrimidin-4-yl]amino}-2-hydroxycyclopentyl]methyl sulfamate] | < 10 nM | – | 99% |
| NS(=O)(=O)OC[C@H]1C[C@@H](Nc2ncncc2C(=O)c2ccn(C3CCc4ccccc43)n2)[C@H](O)[C@@H]1O (single isomer, unassigned) [Compound I-323, {(1R,2R,3S,4R)-4-[(5-{[1-((1R)-2,3-dihydro-1H-inden-1-yl)-1H-pyrazol-3-yl]carbonyl}pyrimidin-4-yl)amino]-2,3-dihydroxycyclopentyl}methyl sulfamate or {(1R,2R,3S,4R)-4-[(5-{[1-((1S)-2,3-dihydro-1H-inden-1-yl)-1H-pyrazol-3-yl]carbonyl}pyrimidin-4-yl)amino]-2,3-dihydroxycyclopentyl}methyl sulfamate] | 10 to 100 nM | – | 82% |
| CC(c1ccc(Cl)o1)n1ccc(C(=O)c2cncnc2N[C@@H]2C[C@H](COS(N)(=O)=O)[C@@H](O)[C@@H]2F)c1 (single isomer, unassigned) [Compound I-350, [(1R,2R,3R,4R)-4-{[5-({1-[(1S)-1-(5-chloro-2-furyl)ethyl]-1H-pyrrol-3-yl}carbonyl)pyrimidin-4-yl]amino}-3-fluoro-2-hydroxycyclopentyl]methyl sulfamate or [(1R,2R,3R,4R)-4-{[5-({1-[(1R)-1-(5-chloro-2-furyl)ethyl]-1H-pyrrol-3-yl}carbonyl)pyrimidin-4-yl]amino}-3-fluoro-2-hydroxycyclopentyl]methyl sulfamate] | < 10 nM | – | 96% |
| CC(c1ccccc1)n1ccc(C(=O)c2cncnc2N[C@@H]2C[C@H](COS(N)(=O)=O)[C@@H](O)[C@H]2O)n1 (single isomer, unassigned) [Compound I-351, {(1R,2R,3S,4R)-2,3-dihydroxy-4-[(5 -{[1-((1S)-1-phenylethyl)-1H-pyrazol-3-yl]carbonyl}pyrimidin-4-yl)amino]cyclopentyl}methyl sulfamate or {(1R,2R,3S,4R)-2,3-dihydroxy-4-[(5-{[1-((1R)-1-phenylethyl)-1H-pyrazol-3-yl]carbonyl}pyrimidin-4-yl)amino]cyclopentyl}methyl sulfamate] | < 10 nM | – | 97% |
